# Data published in patent publication US6531464B1, “Methods for the treatment of neurodegenerative disorders using substituted phenanthridinone derivatives” (Inotek Pharmaceutical Corporation, priority 1999, dated 2003).
# What was measured:
# [1] = system: anesthetized rat; test: Coronary artery ligation and release (myocardial reperfusion injury) in anesthetized rat; assay type: in vivo; set-up: dose or concentration left out as unconfirmed; settings: 1-hour coronary ischemia, 1 hour reperfusion, i.v. 10 min prior to reperfusion
# [2] = system: SJL/PLJ mice; test: Experimental allergic encephalomyelitis (EAE) induced by MBP immunization; assay type: in vivo, mouse
# Protocol: The studies were performed according to standard methods. See, e.g., Hooper et al., Proc Natl Acad Sci U S A 95:675-680, 1998. Briefly, EAE was caused by immunization of 8-10 week old female SJL/PLJ mice with MBP (in complete Freund's adjuvant containing 0.05% M Butyricum plus an additional 4 mg/ml Mycobacterium Tuberculosis H37 RA, one […] subcutaneous dose plus 2 doses of 400 ng pertussis toxin, intra-peritoneal, on days 0 and 2). The grading system shown in Table 5 was used to evaluate the severity of the disease.
# [3] = system: mouse; test: Ischemic and reperfused gut (superior mesenteric artery occlusion); settings: gut ischemia-reperfusion; 38% mortality without treatment
# Excerpt: In another model, a mouse model of ischemic and reperfused gut was utilized.
# [4] = system: cultured neurons; settings: oxygen/glucose deprivation; concentration range 10 nM-1 μM
# Excerpt: A second experimental system was used where oxygen/glucose deprivation induced cell death in cultured neurons (i.e. an in vitro model of stroke).
# [5] = system: J774 macrophages; test: LPS-stimulated J774 macrophages: cell viability; assay type: cell-based
# Excerpt: (§1) In in vitro studies, J774 macrophages were exposed to bacterial lipopolysaccharide (LPS), to induce pro-inflammatory mediator production and cytotoxicity. […] This assay (the LPS-stimulated macrophage) represents an in vitro model of an inflammatory situation. Agents that block inflammatory mediator production in this assay are expected to have anti-inflammatory or immunosuppressive effects in inflammatory or immune diseases.
# (§2) The half-maximal inhibitory effect (in μM) of various PJ compounds was assessed under a variety of conditions in immunostimulated J774 macrophages and in peroxynitrite-stimulated thymocytes. Macrophages or thymocytes were first treated with a chosen PJ compound for 30 min at a concentration ranging from 0.1 to 30 μM. The cells were then immunostimulated with LPS (10 μg/ml) or treated with peroxynitrite (30 μM). MIP production in the macrophages was measured at 3 h, TNF and nitric oxide were measured at 24 h, cell viability in the macrophages were measured at 24 h. PARS activation and cell death in thymocytes were measured at 6 h. Measurements of mediator production, PARS activation and cell death were essentially as described in Németh, et al., Eur J Pharmacol 339:215-221, 1997 and Virág and Szabó, Br J Pharmacol, 126: 769-777, 1999. Results in Table 2 are shown as EC50 values (half maximal inhibition of mediator production or restoration of cell viability; in μM): [mean±SEM of n=3-6 determinations].
# [6] = system: nitric oxide (nitrite); test: LPS-stimulated J774 macrophages: nitric oxide production measured as nitrite; assay type: cell-based
# Excerpt: as §1, §2
# [7] = system: MIP-2; test: LPS-stimulated J774 macrophages: MIP-2 production; assay type: cell-based
# Excerpt: as §1, §2
# [8] = 10 mg/kg orally 2 times daily from day 10
# [9] = J774 macrophages exposed to LPS
smiles,measurement,setting,value
"CN(C)CC(=O)Nc1ccc2[nH]c(=O)c3ccccc3c2c1 [PJ34, N-(6-oxo-5,6-dihydro-phenanthridin-2-yl)-N,N-dimethylacetamide]",reduction of plasma levels of creatine phosphokinase (CPK),[1],approx. 50%
same,"myocardial infarct size (area of necrosis, over area of risk)",[1]; 62±1 without treatment,50±3%
same,mortality in EAE (in words),[2]; [8],significant reduction
same,severity of EAE (in words),[2]; [8],significant reduction
same,Percent mortality,"[2]; Day 10 after immunization, 10 mg/kg orally 2 times daily from day 10",0%
same,Average Disease severity index,"[2]; Day 10 after immunization, 10 mg/kg orally 2 times daily from day 10, grading Table 5",0
same,Average Disease severity index,[2]; Day 11,0
same,Percent mortality,[2]; Day 11,0%
same,Average Disease severity index,[2]; Day 12,0
same,Percent mortality,[2]; Day 12,0%
same,Average Disease severity index,[2]; Day 13,0
same,Percent mortality,[2]; Day 13,0%
same,Average Disease severity index,[2]; Day 14,0
same,Percent mortality,[2]; Day 14,0%
same,Average Disease severity index,[2]; Day 15,0
same,Percent mortality,[2]; Day 15,0%
same,Average Disease severity index,[2]; Day 16,4
same,Percent mortality,[2]; Day 16,0%
same,Average Disease severity index,[2]; Day 17,4
same,Percent mortality,[2]; Day 17,0%
same,Average Disease severity index,[2]; Day 18,4
same,Percent mortality,[2]; Day 18,0%
same,Average Disease severity index,[2]; Day 19,4
same,Percent mortality,[2]; Day 19,0%
same,Average Disease severity index,[2]; Day 20,3
same,Percent mortality,[2]; Day 20,0%
same,survival,[3],100%
same,cytoprotection,[4],up to 70%
same,viability of the cells suppressed by LPS exposure (in words),[5]; [9],restored the viability
same,EC50,"[5]; Mus musculus, J774, LPS 10 μg/ml, 30 min pretreatment 0.1 to 30 μM, measured at 24 h, mean±SEM n=3-6, read-out: Enhancement of cell Viability (J774)",12.5 ± 1.4 µM
same,"production of nitric oxide, measured as nitrite (in words)",[6]; [9],inhibited
same,EC50,"[6]; Mus musculus, J774, LPS 10 μg/ml, 30 min pretreatment 0.1 to 30 μM, measured at 24 h, mean±SEM n=3-6, read-out: Inhibition of Nitrite (J774)",15.2 ± 2.8 µM
same,production of the chemokine MIP-2 (in words),[7]; [9],inhibited
same,EC50,"[7]; Mus musculus, J774, LPS 10 μg/ml, 30 min pretreatment 0.1 to 30 μM, measured at 3 h, mean±SEM n=3-6, read-out: Inhibition of MIP-2 (J774)",7.2 ± 0.88 µM
